Measurements from US20180200257A1, “METHODS FOR THE TREATMENT OF INFLAMMATORY DISORDERS” (Galapagos NV, priority 2015, published 2018).

Tested on: subjects with moderately to severely active RA who have an inadequate response to methotrexate (MTX)
Assay: Study 1 (add-on to MTX) - ACR responses (ACR20/50/70)
Type: in vivo, human
Text: The terms “ACR20”, “ACR50” and “ACR70” as used herein are scores which indicate how much a patient's rheumatoid arthritis has improved according to criteria set out by the American College of Rheumatology (ACR). The ACR score represents a percentage. An ACR20 score means that a person's RA has improved by 20%, an ACR50 score means it has improved by 50%, and an ACR70 score means it has improved by 70%. Specifically, to qualify for an ACR20 score, a person with RA must have at least 20% fewer tender joints and at least 20% fewer swollen joints. In addition the patient must show a 20% improvement in at least three of the following five areas: the person's overall (global) assessment of his or her own RA, the physician's global assessment of the person's RA, the person's assessment of his or her own pain, the person's assessment of his or her own physical functioning, and the results of an erythrocyte sedimentation rate or C-reactive protein (CRP) blood test (both of which test for inflammation). ACR50 and ACR70 scores use the same criteria but require 50% and 70% improvement, respectively, (Felson et al., 1993). In the data presented herein the CRP blood test is used.
Double-blind, placebo-controlled add on study in subjects with moderately to severely active RA who have an inadequate response to methotrexate (MTX) (oral or parenteral).
595 subjects randomized to one of 6 dose regimens of Compound 1 (dosed as [Compound 1:HCl:3H2O]) (3 dose levels administered either once or twice daily) or placebo on top of each subject's stable dose of MTX.
Compound 1 (dosed as [Compound 1:HCl:3H2O]) is dosed for twelve weeks once daily (q.d.) (50 mg, 100 mg or 200 mg) or twice daily (b.i.d.) (25 mg, 50 mg or 100 mg); or placebo.
At Week 12, the subjects on placebo who have not achieved 20% improvement in swollen joint count (SJC66) and tender joint count (TJC68) are re-randomized automatically to receive Compound 1 (dosed as a [Compound 1:HCl:3H2O]) either at 100 mg q.d. or 50 mg b.i.d. doses in a blinded fashion; subjects on 50 mg q.d. who have not achieved 20% improvement in SJC66 and TJC68 will be assigned to 100 mg q.d. and subjects on 25 mg b.i.d. that have not achieved a 20% improvement in SJC66 and TJC68 will be assigned to 50 mg b.i.d. Subjects who switch treatment at week 12 are handled as if they discontinued at week 12 for the purpose of statistical analysis, whereas subjects in the other groups will maintain their randomized treatment until Week 24.
The American College of Rheumatology (ACR) composite score, which evaluates clinical improvement relative to an initial assessment, is a commonly accepted efficacy end point for clinical trials in patients with rheumatoid arthritis. The ACR score correspond to a percentage improvement in pre-set parameters, and therefore measures the evolution of the disease in a patient. For example, ACR20 denotes at least 20% improvement in tender and swollen joint counts and in three of the following end points: global assessment by the patient, global assessment by the doctor, C reactive protein (CRP), patient's pain Visual Analogue Scale and Health Assessment Questionnaire Score. The number of swollen joints, ESR and CRP correlate with radiographic progression of joint damage, whereas tender joint counts, as well as global assessments by doctors and patients, and patients' reports of pain, are sensitive to change in clinical outcomes. Physical function, as assessed by the Health Assessment Questionnaire Score, is a potent predictor of the risk of disability in rheumatoid arthritis (Felson and American College of Rheumatology Committee to Reevaluate Improvement Criteria, 2007; Felson et al., 1993).
In particular, the list of parameters used to assess ACR score can be found in the Table XCVI below and the results of the ACR responses at week 12 via either NRI or LOCF are shown in the tables below. The Hommel-corrected p-value for the pairwise comparisons of each group with placebo is shown. […]

[1] = 50 mg q.d., week 2, 12 weeks results
[2] = 50 mg q.d., week 2, 24 weeks results
[3] = 50 mg q.d., week 4, 12 weeks results
[4] = 50 mg q.d., week 4, 24 weeks results
[5] = 50 mg q.d., week 12, 12 weeks results
[6] = 50 mg q.d., week 12, 24 weeks results
[7] = 50 mg q.d., week 16, 24 weeks results
[8] = 50 mg q.d., week 20, 24 weeks results
[9] = 50 mg q.d., week 24, 24 weeks results
[10] = 50 mg q.d., at week 1, 12 weeks results
[11] = 50 mg q.d., at week 1, 24 weeks results
[12] = 50 mg q.d., week 8, 12 weeks results
[13] = 50 mg q.d., week 8, 24 weeks results
[14] = 100 mg q.d., week 2, 12 weeks results
[15] = 100 mg q.d., week 2, 24 weeks results
[16] = 100 mg q.d., week 4, 12 weeks results
[17] = 100 mg q.d., week 4, 24 weeks results
[18] = 100 mg q.d., week 8, 24 weeks results
[19] = 100 mg q.d., week 12, 12 weeks results

O=C(Nc1nc2cccc(-c3ccc(CN4CCS(=O)(=O)CC4)cc3)n2n1)C1CC1 [Compound 1, cyclopropanecarboxylic acid {5-[4-(1,1-dioxo-thiomorpholin-4-ylmethyl)-phenyl]-[1,2,4]triazolo[1,5-a]pyridin-2-yl}-amide]
ACR20 (LOCF) [1]: 39.0% | ACR20 (NRI) [1]: 37.8% | ACR50 (LOCF) [1]: 7.3% | ACR50 (NRI) [1]: 7.3% | ACR70 (LOCF) [1]: 2.4% | ACR70 (NRI) [1]: 2.4% | ACR20 (LOCF) [2]: 39.0% | ACR20 (NRI) [2]: 37.8% | ACR50 (LOCF) [2]: 7.3% | ACR50 (NRI) [2]: 7.3% | ACR70 (LOCF) [2]: 2.4% | ACR70 (NRI) [2]: 2.4% | ACR20 (LOCF) [3]: 45.1% | ACR20 (NRI) [3]: 42.7% | ACR50 (LOCF) [3]: 12.2% | ACR50 (NRI) [3]: 12.2% | ACR70 (LOCF) [3]: 7.3% | ACR70 (NRI) [3]: 7.3% | ACR20 (LOCF) [4]: 45.1% | ACR20 (NRI) [4]: 42.7% | ACR50 (LOCF) [4]: 12.2% | ACR50 (NRI) [4]: 12.2% | ACR70 (LOCF) [4]: 7.3% | ACR70 (NRI) [4]: 7.3% | ACR20 (LOCF) [5]: 59.8% | ACR20 (NRI) [5]: 56.1% | ACR50 (LOCF) [5]: 31.7% | ACR50 (NRI) [5]: 31.7% | ACR70 (LOCF) [5]: 15.9% | ACR70 (NRI) [5]: 15.9% | ACR20 (LOCF) [6]: 59.8% | ACR20 (NRI) [6]: 56.1% | ACR50 (LOCF) [6]: 31.7% | ACR50 (NRI) [6]: 31.7% | ACR70 (LOCF) [6]: 15.9% | ACR70 (NRI) [6]: 15.9% | ACR20 (LOCF) [7]: 59.8% | ACR20 (NRI) [7]: 56.1% | ACR50 (LOCF) [7]: 37.8% | ACR50 (NRI) [7]: 37.8% | ACR70 (LOCF) [7]: 18.3% | ACR70 (NRI) [7]: 18.3% | ACR20 (LOCF) [8]: 61.0% | ACR20 (NRI) [8]: 57.3% | ACR50 (LOCF) [8]: 39.0% | ACR70 (LOCF) [8]: 23.2% | ACR20 (LOCF) [9]: 61.0% | ACR20 (NRI) [9]: 54.9% | ACR50 (LOCF) [9]: 36.6% | ACR70 (LOCF) [9]: 22.0% | ACR20 (LOCF) [10]: 22.0% | ACR20 (NRI) [10]: 22.0% | ACR50 (LOCF) [10]: 2.4% | ACR50 (NRI) [10]: 2.4% | ACR70 (LOCF) [10]: 0.0% | ACR70 (NRI) [10]: 0.0% | ACR20 (LOCF) [11]: 22.0% | ACR20 (NRI) [11]: 22.0% | ACR50 (LOCF) [11]: 2.4% | ACR50 (NRI) [11]: 2.4% | ACR70 (LOCF) [11]: 0.0% | ACR70 (NRI) [11]: 0.0% | ACR20 (LOCF) [12]: 57.3% | ACR20 (NRI) [12]: 54.9% | ACR50 (LOCF) [12]: 25.6% | ACR50 (NRI) [12]: 26.8% | ACR70 (LOCF) [12]: 11.0% | ACR70 (NRI) [12]: 11.0% | ACR20 (LOCF) [13]: 57.3% | ACR20 (NRI) [13]: 54.9% | ACR50 (LOCF) [13]: 26.8% | ACR50 (NRI) [13]: 26.8% | ACR70 (LOCF) [13]: 11.0% | ACR70 (NRI) [13]: 11.0% | ACR20 (LOCF) [14]: 45.9% | ACR20 (NRI) [14]: 47.1% | ACR50 (LOCF) [14]: 20.0% | ACR50 (NRI) [14]: 20.0% | ACR70 (LOCF) [14]: 7.1% | ACR70 (NRI) [14]: 7.1% | ACR20 (LOCF) [15]: 48.2% | ACR20 (NRI) [15]: 47.1% | ACR50 (LOCF) [15]: 20.0% | ACR50 (NRI) [15]: 20.0% | ACR70 (LOCF) [15]: 7.1% | ACR70 (NRI) [15]: 7.1% | ACR20 (LOCF) [16]: 48.2% | ACR20 (NRI) [16]: 50.6% | ACR50 (LOCF) [16]: 32.9% | ACR50 (NRI) [16]: 32.9% | ACR70 (LOCF) [16]: 15.3% | ACR70 (NRI) [16]: 15.3% | ACR20 (LOCF) [17]: 51.8% | ACR20 (NRI) [17]: 51.8% | ACR50 (LOCF) [17]: 32.9% | ACR50 (NRI) [17]: 32.9% | ACR70 (LOCF) [17]: 15.3% | ACR70 (NRI) [17]: 15.3% | ACR20 (LOCF) [18]: 64.7% | ACR20 (NRI) [18]: 64.7% | ACR50 (LOCF) [18]: 35.3% | ACR50 (NRI) [18]: 35.3% | ACR70 (LOCF) [18]: 23.5% | ACR70 (NRI) [18]: 23.5% | ACR20 (LOCF) [19]: 63.5% | ACR20 (NRI) [19]: 62.4% | ACR50 (LOCF) [19]: 38.8% | ACR50 (NRI) [19]: 38.8%
